# Source: US10004711B2, “Methods and compositions comprising 10-hydroxy-2-decenoic acid” (DSM IP ASSETS B.V., priority 2014, dated 2018)
# Experiments:
# [1] = test system: RAW264.7 mouse macrophage cell line; assay: TNFα levels after LPS stimulation; assay type: cell-based; settings: for TNFα (pg/mL)/Cell Numbers: 24 h
# Protocol: Cultures of the RAW264.7 mouse macrophage cell line were pre-treated with 10-Hydroxy-2-decenoic acid (QBA) for 1 hour prior to stimulation with lipopolysaccharide (LPS, 100 ng/mL). After 24 hours of incubation, interleukin […] (IL-1β) and tumor necrosis factor-α (TNFα) levels were determined by Luminex technology and cell numbers were measured using Alamar Blue. Results are given as a ratio of cytokine concentration/cell number.
# [2] = test system: Neurons from the brain's hippocampus; assay: In vitro hypoxia cell death (ethidium homodimer); assay type: cell-based, rat; settings: for Cell Death (% Control): hypoxia (<0.3% O2) 48 h
# Protocol: Neurons from the brain's hippocampus were derived from E17 pups and incubated for 7 days. The neurons were then pre-treated with QBA for 48 hours and subsequently exposed to a hypoxia (<0.3% O2) for 48 hours. The cultures were stained with calcein AM, a marker of live cells, and with ethidium homodimer, a marker for dead cells. The fluorescence of each of these markers was then quantitated with a fluorimeter.
# [3] = test system: Neurons from the brain's hippocampus; assay: In vitro neurite extension (Map2a staining per neuron); assay type: cell-based, rat; settings: for % Map2a Staining/Neuron: 7 days incubation
# Protocol: Neurons from the brain's hippocampus were derived from embryonic day (E17) rat pups and incubated with QBA for 7 days. The cultures were then stained with neuron-specific marker, microtubule associated protein-2a (Map2a) and cell nuclei were stained with 4′,6-diamidino-2-phenylindole (DAPI). Fluorescent images of the staining were then captured with a confocal microscope. The staining was quantitated by dividing the percent area of the Map2a staining by the number of neurons.
# [4] = Body weight of aged male rats fed QBA (Example 7); assay type: in vivo, rat
# Protocol: Aged male rats were fed 10-Hydroxy-2-decenoic acid (QBA) for approximately 7 months from 11-months to 18-months of age and the weight of rats was recorded.
structure (smiles),measurement,setting,value
"O=C(O)C=CCCCCCCCO [QBA, 10-Hydroxy-2-decenoic acid]",TNFα (pg/mL)/Cell Numbers,[1]; QBA 50 μM 1 h before LPS 100 ng/mL,0.409 (pg/mL)/Cell Numbers
same,TNFα (pg/mL)/Cell Numbers,[1]; QBA 100 μM 1 h before LPS 100 ng/mL,0.456 (pg/mL)/Cell Numbers
same,TNFα (pg/mL)/Cell Numbers,[1]; QBA 500 μM 1 h before LPS 100 ng/mL,0.427 (pg/mL)/Cell Numbers
same,TNFα (pg/mL)/Cell Numbers,[1]; QBA 1000 μM 1 h before LPS 100 ng/mL,0.261 (pg/mL)/Cell Numbers
same,TNFα (pg/mL)/Cell Numbers,[1]; QBA 2500 μM 1 h before LPS 100 ng/mL,0.252 (pg/mL)/Cell Numbers
same,TNFα (pg/mL)/Cell Numbers,[1]; QBA 5000 μM 1 h before LPS 100 ng/mL,0.150 (pg/mL)/Cell Numbers
same,production of TNFα in immune cells,[1]; summary of Table 10,reduced the production
same,Cell Death (% Control),[2]; QBA 0.10 μM pre-treatment 48 h,86.26 % Control
same,Cell Death (% Control),[2]; QBA 0.30 μM pre-treatment 48 h,83.62 % Control
same,Cell Death (% Control),[2]; QBA 1.00 μM pre-treatment 48 h,83.00 % Control
same,Cell Death (% Control),[2]; QBA 3.00 μM pre-treatment 48 h,82.20 % Control
same,Cell Death (% Control),[2]; QBA 10.00 μM pre-treatment 48 h,85.13 % Control
same,Cell Death (% Control),[2]; QBA 30.00 μM pre-treatment 48 h,82.29 % Control
same,Cell Death (% Control),[2]; QBA 100.00 μM pre-treatment 48 h,86.39 % Control
same,cell death after low oxygen exposure,[2]; summary of Table 4,decreased cell death
same,% Map2a Staining/Neuron,[3]; QBA 0.10 μM,0.29%
same,% Map2a Staining/Neuron,[3]; QBA 0.30 μM,0.32%
same,% Map2a Staining/Neuron,[3]; QBA 1.00 μM,0.30%
same,% Map2a Staining/Neuron,[3]; QBA 3.00 μM,0.31%
same,% Map2a Staining/Neuron,[3]; QBA 10.00 μM,0.32%
same,% Map2a Staining/Neuron,[3]; QBA 30.00 μM,0.32%
same,% Map2a Staining/Neuron,[3]; QBA 100.00 μM,0.27%
same,growth of brain cells in culture,[3]; summary of Table 1,increased the growth of brain cells in culture
same,Avg Wt,"[4]; QBA 0.4 mg/kg/day, study day 0",509.6 g
same,Avg Wt,"[4]; QBA 0.4 mg/kg/day, study day 7",516.1 g
same,Avg Wt,"[4]; QBA 0.4 mg/kg/day, study day 21",524.4 g
same,Avg Wt,"[4]; QBA 0.4 mg/kg/day, study day 29",508.6 g
same,Avg Wt,"[4]; QBA 0.4 mg/kg/day, study day 36",523.1 g
same,Avg Wt,"[4]; QBA 0.4 mg/kg/day, study day 50",554.6 g
same,Avg Wt,"[4]; QBA 0.4 mg/kg/day, study day 57",559.5 g
same,Avg Wt,"[4]; QBA 0.4 mg/kg/day, study day 64",566.7 g
same,Avg Wt,"[4]; QBA 0.4 mg/kg/day, study day 71",568.6 g
same,Avg Wt,"[4]; QBA 0.4 mg/kg/day, study day 78",570.3 g
same,Avg Wt,"[4]; QBA 0.4 mg/kg/day, study day 85",577.3 g
same,Avg Wt,"[4]; QBA 0.4 mg/kg/day, study day 92",581.3 g
same,Avg Wt,"[4]; QBA 0.4 mg/kg/day, study day 99",583.8 g
same,Avg Wt,"[4]; QBA 0.4 mg/kg/day, study day 106",592.7 g
same,Avg Wt,"[4]; QBA 0.4 mg/kg/day, study day 113",593.2 g
same,Avg Wt,"[4]; QBA 0.4 mg/kg/day, study day 120",596.8 g
same,Avg Wt,"[4]; QBA 0.4 mg/kg/day, study day 127",590.7 g
same,Avg Wt,"[4]; QBA 0.4 mg/kg/day, study day 141",589.8 g
same,Avg Wt,"[4]; QBA 0.4 mg/kg/day, study day 148",578.0 g
same,Avg Wt,"[4]; QBA 0.4 mg/kg/day, study day 155",585.4 g
same,Avg Wt,"[4]; QBA 0.4 mg/kg/day, study day 162",593.6 g
same,Avg Wt,"[4]; QBA 0.4 mg/kg/day, study day 169",601.7 g
same,Avg Wt,"[4]; QBA 0.4 mg/kg/day, study day 176",573.6 g
same,Avg Wt,"[4]; QBA 0.4 mg/kg/day, study day 182",588.7 g
same,Avg Wt,"[4]; QBA 0.4 mg/kg/day, study day 190",584.1 g
same,Avg Wt,"[4]; QBA 0.4 mg/kg/day, study day 197",582.6 g
same,Avg Wt,"[4]; QBA 0.4 mg/kg/day, study day 204",580.1 g
same,Avg Wt,"[4]; QBA 0.4 mg/kg/day, study day 211",575.8 g
same,Avg Wt,"[4]; QBA 0.4 mg/kg/day, study day 217",582.6 g
same,Avg Wt,"[4]; QBA 4 mg/kg/day, study day 0",509.8 g
same,Avg Wt,"[4]; QBA 4 mg/kg/day, study day 7",518.9 g
same,Avg Wt,"[4]; QBA 4 mg/kg/day, study day 21",527.4 g
same,Avg Wt,"[4]; QBA 4 mg/kg/day, study day 29",511.6 g
same,Avg Wt,"[4]; QBA 4 mg/kg/day, study day 36",526.8 g
same,Avg Wt,"[4]; QBA 4 mg/kg/day, study day 50",567.3 g
same,Avg Wt,"[4]; QBA 4 mg/kg/day, study day 57",571.0 g
same,Avg Wt,"[4]; QBA 4 mg/kg/day, study day 64",576.4 g
same,Avg Wt,"[4]; QBA 4 mg/kg/day, study day 71",576.2 g
same,Avg Wt,"[4]; QBA 4 mg/kg/day, study day 78",584.8 g
same,Avg Wt,"[4]; QBA 4 mg/kg/day, study day 85",587.5 g
same,Avg Wt,"[4]; QBA 4 mg/kg/day, study day 92",584.3 g
same,Avg Wt,"[4]; QBA 4 mg/kg/day, study day 99",595.4 g
same,Avg Wt,"[4]; QBA 4 mg/kg/day, study day 106",592.5 g
same,Avg Wt,"[4]; QBA 4 mg/kg/day, study day 113",594.7 g
same,Avg Wt,"[4]; QBA 4 mg/kg/day, study day 120",592.2 g
same,Avg Wt,"[4]; QBA 4 mg/kg/day, study day 127",592.4 g
same,Avg Wt,"[4]; QBA 4 mg/kg/day, study day 141",593.1 g
